Measured values reported in US8741926B2, “Macrocyclic inhibitors of hepatitis C virus” (Tibotec Pharmaceuticals Ltd., priority 2005, dated 2014).
Like-named read-outs stand apart in the source and are kept apart here.

Columns and labels:
[1] = tested on: HCV type 1b replicon in Huh-7 luc/neo (Huh-Luc) cells; assay: Replicon assay: inhibition of HCV RNA replication in Huh-Luc cells (luciferase); type: cell-based; details: luciferase activity, incubation of three days
Method: The in vitro antiviral activity against HCV of the compounds of formula (I) was tested in a cellular HCV replicon system based on Lohmann et al. (1999) Science 285:110-113, with the further modifications described by Krieger et al. (2001) Journal of Virology 75: 4614-4624, which is further exemplified in the examples section. This model, while not a complete infection model for HCV, is widely accepted as the most robust and efficient model of autonomous HCV RNA replication currently available. […] It will be appreciated that it is important to distinguish between compounds that specifically interfere with HCV functions from those that exert cytotoxic or cytostatic effects in the HCV replicon model, and as a consequence cause a decrease in HCV RNA or linked reporter enzyme concentration. Assays are known in the field for the evaluation of cellular cytotoxicity based for example on the activity of mitochondrial enzymes using fluorogenic redox dyes such as resazurin. Furthermore, cellular counter screens exist for the evaluation of non-selective inhibition of linked reporter gene activity, such as firefly luciferase. Appropriate cell types can be equipped by stable transfection with a luciferase reporter gene whose expression is dependent on a constitutively active gene promoter, and such cells can be used as a counter-screen to eliminate non-selective inhibitors.
The compounds of formula (I) were examined for activity in the inhibition of HCV RNA replication in a cellular assay. […] The cellular assay was based on a bicistronic expression construct, as described by Lohmann et al. (1999) Science vol. 285 pp. 110-113 with modifications described by Krieger et al. (2001) Journal of Virology 75: 4614-4624, in a multi-target screening strategy. In essence, the method was as follows.
The assay utilized the stably transfected cell line Huh-7 luc/neo (hereafter referred to as Huh-Luc). This cell line harbors an RNA encoding a bicistronic expression construct comprising the wild type NS3-NS5B regions of HCV type 1b translated from an Internal Ribosome Entry Site (IRES) from encephalomyocarditis virus (EMCV), preceded by a reporter portion (FfL-luciferase), and a selectable marker portion (neo^R, neomycine phosphotransferase). The construct is bordered by 5′ and 3′ NTRs (non-translated regions) from HCV type 1b. Continued culture of the replicon cells in the presence of G418 (neo^R) is dependent on the replication of the HCV RNA. The stably transfected replicon cells that express HCV RNA, which replicates autonomously and to high levels, encoding inter alia luciferase, are used for screening the antiviral compounds.
The replicon cells were plated in 384 well plates in the presence of the test and control compounds which were added in various concentrations. Following an incubation of three days, HCV replication was measured by assaying luciferase activity (using standard luciferase assay substrates and reagents and a Perkin Elmer ViewLux™ ultraHTS microplate imager). Replicon cells in the control cultures have high luciferase expression in the absence of any inhibitor. The inhibitory activity of the compound on luciferase activity was monitored on the Huh-Luc cells, enabling a dose-response curve for each test compound.

HCV NS3/4A protease = HCV NS3/4A protease (Hepatitis C virus genotype 1a (isolate H77) (HCV), UniProt P27958); assay: Inhibition assay (enzymatic assay) of full-length NS3 protease with NS4A cofactor; type: biochemical; details: full-length NS3 protease 1 nM, 25 μM NS4A cofactor, depsipeptide substrate, competitive inhibition model; read-out: Ki (μM) Enzymatic assay
Method: [Landro, 1997 #Biochem 36 9340-9348]. […] The solutions were stored at −20° C. between measurements.
[Liu, 1999 Analytical Biochemistry 267 331-335].

[2] = rcm bond, 14-membered ring, 1,2-dichloroethane

Sequence of HCV NS3/4A protease (P27958 1027-1657): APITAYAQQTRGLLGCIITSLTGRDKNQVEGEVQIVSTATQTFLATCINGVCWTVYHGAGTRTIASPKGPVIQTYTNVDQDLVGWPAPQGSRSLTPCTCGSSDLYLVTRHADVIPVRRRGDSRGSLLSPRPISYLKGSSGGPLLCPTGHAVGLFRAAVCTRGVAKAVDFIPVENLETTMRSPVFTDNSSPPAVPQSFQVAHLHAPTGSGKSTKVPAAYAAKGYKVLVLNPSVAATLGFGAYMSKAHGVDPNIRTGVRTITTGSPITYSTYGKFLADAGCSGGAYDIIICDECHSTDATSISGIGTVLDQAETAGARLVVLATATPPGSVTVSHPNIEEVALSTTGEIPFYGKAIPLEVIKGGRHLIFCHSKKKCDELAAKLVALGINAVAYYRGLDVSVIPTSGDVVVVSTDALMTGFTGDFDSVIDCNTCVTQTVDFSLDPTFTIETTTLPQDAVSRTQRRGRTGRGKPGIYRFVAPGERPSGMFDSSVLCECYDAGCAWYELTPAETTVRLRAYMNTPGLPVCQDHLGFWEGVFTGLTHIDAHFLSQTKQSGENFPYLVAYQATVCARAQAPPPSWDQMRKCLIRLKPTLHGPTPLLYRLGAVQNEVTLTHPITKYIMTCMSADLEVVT

COc1ccc2c(O[C@@H]3C[C@H]4C(=O)N[C@]5(C(=O)NS(=O)(=O)C6CC6)C[C@H]5/C=C\CCCCN(C)C(=O)[C@@H]4C3)cc(-c3nc(C(C)C)cs3)nc2c1F [Compound 75]
EC50 ([1]; Hepatitis C virus, Huh-7, 72 h): 0.0575 µM

N-[17-[8-ethyl-2-(4-isopropylthiazole-2-yl)-7-methoxyquinolin-4-yloxy]-13-methyl-2,14-dioxo-3,13-diazatricyclo[13.3.0.0^4,6]octadec-7-ene-4-carbonyl](cyclo-propyl)sulfonamide [Compound 71]
EC50 [1]: 10 µM

COc1ccc2c(O[C@@H]3C[C@H]4C(=O)N[C@]5(C(=O)NS(=O)(=O)C6(C)CC6)C[C@H]5/C=C\CCCCCNC(=O)N4C3)cc(-c3nc(C(C)C)cs3)nc2c1Cl (stereo in doubt) [Compound 95, N-[[18-[8-chloro-2-[4-(isopropyl)thiazol-2-yl]-7-methoxyquinolin-4-yloxy]-2,15-dioxo-3,14,16-triazatricyclo[14.3.0.0^4,6]nonadec-7-en-4-yl]carbonyl](1-methylcyclopropyl)sulfonamide]
Ki (HCV NS3/4A protease): 0.1 nM
EC50 ([1]; Hepatitis C virus, Huh-7, 72 h): 0.00404 µM

N-[18-[2-(4-isopropylthiazole-2-yl)-7-methoxy-8-methylquinolin-4-yl-oxy]-2,15-dioxo-3,14-diazatricyclo[14.3.0.0^4,6]nonadec-7-ene-4-carbonyl](cyclo-propyl)sulfonamide [Compound 81]
Ki (HCV NS3/4A protease): 1000 nM
EC50 [1]: 10 µM

COc1ccc2c(O[C@@H]3C[C@H]4C(=O)N[C@]5(C(=O)O)C[C@H]5/C=C\CCCCN(C)C(=O)[C@@H]4C3)cc(-c3nc(C(C)C)cs3)nc2c1C [Compound 46, 17-[2-(4-isopropylthiazole-2-yl)-7-methoxy-8-methyl-quinolin-4-yloxy]-13-methyl-2,14-dioxo-3,13-diazatricyclo[13.3.0.0^4,6]octadec-7-ene-4-carboxylic acid]
EC50 ([1]; Hepatitis C virus, Huh-7, 72 h): 0.91 µM

CCOC(=O)C12CC1C=CCCCCN(C)C(=O)C1CC(Oc3cc(-c4cccc(C)n4)nc4c(C)c(OC)ccc34)CC1C(=O)N2 (centres unmarked)
ring closure, isolated yield ([2]; from C=CCCCCN(C)C(=O)C1CC(Oc2cc(-c3cccc(C)n3)nc3c(C)c(OC)ccc23)CC1C(=O)NC1(C(=O)OCC)CC1C=C, Hoveyda-Grubbs II, 1.48 mM, 16.0 h): 58%

COc1ccc2c(O[C@@H]3C[C@H]4C(=O)N[C@]5(C(=O)NS(=O)(=O)C6CC6)C[C@H]5/C=C\CCCCN(C)C(=O)[C@@H]4C3)cc(-c3nc(C(C)C)cs3)nc2c1Cl [Compound 56, N-[17-[8-chloro-2-(4-isopropylthiazole-2-yl)-7-methoxyquinolin-4-yloxy]-13-methyl-2,14-dioxo-3,13-diazatricyclo[13.3.0.0^4,6]-octadec-7-ene-4-carbonyl](cyclopropyl)sulfonamide]
EC50 ([1]; Hepatitis C virus, Huh-7, 72 h): 0.00293 µM

CCc1c(OC)ccc2c(O[C@@H]3C[C@H]4C(=O)N[C@]5(C(=O)NS(=O)(=O)C6CC6)C[C@H]5/C=C\CCCCN(C)C(=O)[C@@H]4C3)cc(-c3nc(C(C)C)cs3)nc12 [Compound 72]
EC50 ([1]; Hepatitis C virus, Huh-7, 72 h): 0.066 µM

COc1ccc2c(O[C@@H]3C[C@H]4C(=O)N[C@]5(C(=O)NS(=O)(=O)C6(C)CC6)C[C@H]5/C=C\CCCCN(C)C(=O)[C@@H]4C3)cc(-c3nc(C(C)C)cs3)nc2c1Cl [Compound 57, N-[17-[8-chloro-2-(4-isopropylthiazole-2-yl)-7-methoxy-quinolin-4-yloxy]-13-methyl-2,14-dioxo-3,13-diazatricyclo[13.3.0.0^4,6]octadec-7-ene-4-carbonyl] (1-methylcyclopropyl)sulfonamide]
Ki (HCV NS3/4A protease): 0.3 nM
EC50 ([1]; Hepatitis C virus, Huh-7, 72 h): 0.00187 µM

COc1ccc2c(O[C@H]3C[C@H]4C(=O)NCCCCC/C=C\[C@@H]5C[C@@]5(C(=O)NS(=O)(=O)C5CC5)NC(=O)[C@@H]4C3)cc(-c3nc(C(C)C)cs3)nc2c1C [Compound 82]
Ki (HCV NS3/4A protease): 9.4 nM
EC50 ([1]; Hepatitis C virus, Huh-7, 72 h): 8.32 µM

COc1ccc2c(O[C@@H]3C[C@H]4C(=O)N[C@]5(C(=O)O)C[C@H]5/C=C\CCCCN(C)C(=O)[C@@H]4C3)cc(-c3nc(C(C)C)cs3)nc2c1Cl [Compound 55, 17-[8-chloro-2-(4-isopropylthiazole-2-yl)-7-methoxyquinolin-4-yloxy]-13-methyl-2,14-dioxo-3,13-diazatricyclo[13.3.0.0^4,6]octadec-7-ene-4-carboxylic acid]
Ki (HCV NS3/4A protease): 5 nM
EC50 ([1]; Hepatitis C virus, Huh-7, 72 h): 0.367 µM

CCOC(=O)C12CC1C=CCCCCN(C)C(=O)C1CC(Oc3cc(-c4cccc(C(C)C)n4)nc4c(C)c(OC)ccc34)CC1C(=O)N2 (centres unmarked)
ring closure, isolated yield ([2]; from C=CCCCCN(C)C(=O)C1CC(Oc2cc(-c3cccc(C(C)C)n3)nc3c(C)c(OC)ccc23)CC1C(=O)NC1(C(=O)OCC)CC1C=C, Hoveyda-Grubbs I (3 portions), 17.0 h): 66%

COc1ccc2c(O[C@@H]3C[C@H]4C(=O)N[C@]5(C(=O)NS(=O)(=O)C6CC6)C[C@H]5/C=C\CCCCCNC(=O)N4C3)cc(-c3nc(C(C)C)cs3)nc2c1Cl (stereo in doubt) [Compound 94, N-[[18-[8-chloro-2-[4-(isopropyl)thiazol-2-yl]-7-methoxyquinolin-4-yloxy]-2,15-dioxo-3,14,16-triazatricyclo[14.3.0.0^4,6]nonadec-7-en-4-yl]carbonyl]-(cyclopropyl)sulfonamide]
Ki (HCV NS3/4A protease): 0.1 nM
EC50 ([1]; Hepatitis C virus, Huh-7, 72 h): 0.00326 µM

COc1ccc2c(O[C@@H]3C[C@H]4C(=O)N[C@]5(C(=O)NS(=O)(=O)C6(C)CC6)C[C@H]5/C=C\CCCCN(C)C(=O)[C@@H]4C3)cc(-c3nc(C(C)C)cs3)nc2c1C [Compound 48, N-[17-[2-(4-isopropylthiazole-2-yl)-7-methoxy-8-methylquinolin-4-yloxy]-13-methyl-2,14-dioxo-3,13-diazatricyclo[13.3.0.0^4,6]octadec-7-ene-4-carbonyl](1-methylcyclopropyl)sulfonamide]
Ki (HCV NS3/4A protease): 0.25 nM
EC50 ([1]; Hepatitis C virus, Huh-7, 72 h): 0.00233 µM

COc1ccc2c(O[C@@H]3C[C@H]4C(=O)N[C@]5(C(=O)NS(=O)(=O)C6CC6)C[C@H]5/C=C\CCCCN(C)C(=O)[C@@H]4C3)cc(-n3ccc(C(C)C)n3)nc2c1C [Compound 66, N-[17-[2-(3-isopropylpyrazol-1-yl)-7-methoxy-8-methyl-quinolin-4-yloxy]-13-methyl-2,14-dioxo-3,13-diazatricyclo[13.3.0.0^4,6]octadec-7-ene-4-carbonyl](cyclopropyl)sulfonamide]
EC50 ([1]; Hepatitis C virus, Huh-7, 72 h): 0.0036 µM

COc1ccc2c(O[C@@H]3C[C@H]4C(=O)N[C@]5(C(=O)NS(=O)(=O)C6CC6)C[C@H]5/C=C\CCCCCNC(=O)N4C3)cc(-c3nc(C(C)C)cs3)nc2c1C (stereo in doubt) [Compound 91, N-[[18-[2-[4-(isopropyl)thiazol-2-yl]-7-methoxy-8-methylquinolin-4-yloxy]-2,15-dioxo-3,14,16-triazatricyclo[14.3.0.0^4,6]nonadec-7-en-4-yl]carbonyl]-(cyclopropyl)sulfonamide]
Ki (HCV NS3/4A protease): 0.05 nM
EC50 ([1]; Hepatitis C virus, Huh-7, 72 h): 0.00854 µM

COc1ccc2c(O[C@@H]3C[C@H]4C(=O)N[C@]5(C(=O)O)C[C@H]5/C=C\CCCCN(C)C(=O)[C@@H]4C3)cc(-c3nccs3)nc2c1C [Compound 29, 17-[7-methoxy-8-methyl-2-(thiazol-2-yl)quinolin-4-yloxy]-13-methyl-2,14-dioxo-3,13-diazatricyclo[13.3.0.0^4,6]octadec-7-ene-4-carboxylic acid]
EC50 ([1]; Hepatitis C virus, Huh-7, 72 h): 10 µM

COc1ccc2c(O[C@@H]3C[C@H]4C(=O)N[C@]5(C(=O)NS(=O)(=O)C6CC6)C[C@H]5/C=C\CCCCN(C)C(=O)[C@@H]4C3)cc(-c3cccc(C)n3)nc2c1C [Compound 103, Cyclopropanesulfonic acid {17-[2-(6-methyl-2-pyridyl)-7-methoxy-8-methyl-quinolin-4-yloxy]-13-methyl-2,14-dioxo-3,13-diaza-tricyclo[13.3.0.0^4,6]octadec-7-ene-4-carbonyl}-amide]
EC50 ([1]; Hepatitis C virus, Huh-7, 72 h): 0.0063 µM
